Experimental data taken from ChEMBL document CHEMBL4732147, “A novel [5.2.1]bicyclic amine is a potent analgesic without µ opioid activity” (Bioorg Med Chem Lett, 2021).
Active and inactive are the calls of the source. The rule behind the calls is not given here.

Key:
[1] = Drug concentration in ddY mouse brain at 30 mg/kg, sc; format: ADME, organism-based; conditions: in vivo, read-out: Ct; also: time not given here
[2] = test system: Mus musculus; test: Analgesic activity in sc dosed ddY mouse assessed as protection against acetic acid-induced writhing; format: functional
[3] = Plasma concentration in ddY mouse at 30 mg/kg, sc; format: ADME, organism-based; conditions: in vivo; also: time not given here
[4] = test system: Mus musculus; test: Analgesic activity in ddY mouse assessed as tail flicking at 300 mg/kg, sc; format: functional, organism-based
[5] = test system: Mus musculus; test: Analgesic activity in ddY mouse assessed as protection against acetic acid-induced writhing at 30 mg/kg, sc relative to control; format: functional
[6] = Toxicity in sc dosed ddY mouse assessed as effect on locomotor activity; format: organism-based; conditions: in vivo
[7] = Permeability of compound by PAMPA; format: ADME
[8] = Metabolic stability in mouse cytochrome P450 assessed as parent compound remaining; format: ADME; also: time not given here
[9] = target: T1, Mu-type opioid receptor (Homo sapiens, UniProt P35372); test: Binding affinity to mu opioid receptor (unknown origin)
[10] = test system: Mus musculus; test: Analgesic activity in sc dosed ddY mouse assessed as tail flicking; format: functional
[11] = Protein binding in mouse; format: ADME, organism-based; conditions: in vivo, read-out: PB (converted)
[12] = target: T1, Mu-type opioid receptor; test: Agonist activity at human Gi/G0-coupled mu opioid receptor expressed in human U2OS cells co-expressing EA-tagged beta-arrestin2 assessed as beta-arrestin 2 recruitment by PathHunter assay; format: cell-based
[13] = Lipophilicity, log D of compound; format: physicochemical; conditions: octanol/water
[14] = Apparent clearance in mouse at 10 mg/kg; format: ADME, organism-based; conditions: in vivo
[15] = test system: Cytochrome P450; test: Metabolic stability in human cytochrome P450 assessed as parent compound remaining; format: ADME, protein assay; also: time not given here
[16] = Oral bioavailability in mouse at 10 mg/kg; format: ADME, organism-based; conditions: in vivo
[17] = Clearance in mouse at 10 mg/kg; format: ADME, organism-based; conditions: in vivo
[18] = Half life in mouse at 10 mg/kg; format: ADME, organism-based; conditions: in vivo
[19] = Drug concentration in ddY mouse brain at 10 mg/kg; format: ADME, organism-based; conditions: in vivo, read-out: Ct; also: time not given here
[20] = Toxicity in ddY mouse assessed as hyperactivity at 10 mg/kg, sc; format: organism-based; conditions: in vivo
[21] = test system: Mus musculus; test: Analgesic activity in ddY mouse assessed as tail flicking at 30 mg/kg, sc relative to control; format: functional
[22] = test system: Mus musculus; test: Analgesic activity in ddY mouse assessed as protection against acetic acid-induced writhing at 3 mg/kg, sc relative to control; format: functional

T1 sequence (P35372 whole entry): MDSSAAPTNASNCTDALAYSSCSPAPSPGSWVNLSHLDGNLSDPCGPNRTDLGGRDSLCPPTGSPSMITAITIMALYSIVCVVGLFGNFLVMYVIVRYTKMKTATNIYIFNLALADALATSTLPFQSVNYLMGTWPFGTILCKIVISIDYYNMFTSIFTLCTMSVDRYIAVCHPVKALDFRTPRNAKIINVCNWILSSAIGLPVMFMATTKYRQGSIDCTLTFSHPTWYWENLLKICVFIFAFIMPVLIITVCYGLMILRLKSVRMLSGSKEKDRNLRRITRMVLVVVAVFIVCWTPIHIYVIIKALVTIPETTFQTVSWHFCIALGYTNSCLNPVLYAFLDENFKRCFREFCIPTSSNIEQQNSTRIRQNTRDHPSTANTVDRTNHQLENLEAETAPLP

Compound | concentration [1] [µM] | ED50 [2] [mg/kg] | concentration [3] [µM] | Activity [5] [%] | ED50 [10] [mg/kg] | EC50 [12] [µM] | MPE [21] [%] | further results
O=C1N[C@@]2(c3ccccc3)CCN(Cc3ccccc31)C2 | 11.2 | > 30 | 4.4 | 23 |  |  |  | Activity [4]: inactive
CN1Cc2ccccc2CN2CC[C@@]1(c1ccccc1)C2 |  | 2 | 0.7 |  | 17 | > 20 |  | ID50 [6]: 15 mg/kg; permeability [7]: Permeable; Stabilty [8]: 1%; Ki [9]: 1.33 µM; fraction unbound [11]: 0.16; logD [13]: 3; CL/F [14]: 264 mL/min/kg; Stabilty [15]: 72%; bioavailability [16]: 55.2%; clearance [17]: 261 mL/min/kg; half-life [18]: 1.06 h; concentration [19]: 16.3 µM
CN1Cc2ccccc2CN2CC[C@]1(c1ccccc1)C2 |  | 1 | 0.75 |  | 1.7 | 3 |  | Activity [20]: Toxic; concentration [19]: 15.6 µM
COc1ccc2c(c1)CN1CC[C@@](c3ccccc3)(C1)N(C)C2 | 24.8 | < 30 | 2.2 | 59 | > 30 | > 20 | 36 | 
CN1Cc2cccc(O)c2CN2CC[C@@]1(c1ccccc1)C2 | 13 | < 30 | 0.77 | 93 | > 30 | > 20 | 6 | 
c1ccc([C@@]23CCN(Cc4ccccc4CN2)C3)cc1 | 49.2 | < 30 | 2.2 | 72 | > 30 | > 20 | 19 | 
CN1Cc2cc(O)ccc2CN2CC[C@@]1(c1ccccc1)C2 | 8.33 | 4.6 | 0.74 |  | 6.2 | > 20 |  | ID50 [6]: 5.2 mg/kg
COc1cccc2c1CN1CC[C@@](c3ccccc3)(C1)N(C)C2 | 31.1 | < 30 | 3.1 | 100 | 16 | > 20 |  | ID50 [6]: 19 mg/kg
CN(C)C(=O)CN1Cc2ccccc2CN2CC[C@@]1(c1ccccc1)C2 | 5.3 | > 30 | 4 | 52 |  | > 20 |  | 
O=C1N[C@]2(c3ccccc3)CCN(Cc3ccccc31)C2 | 7.7 | < 30 | 3.5 | 23 |  |  |  | 
CN1Cc2ccc(O)cc2CN2CC[C@@]1(c1ccccc1)C2 | 19.4 |  | 1.5 | 100 |  | 2.4 |  | 
OCCN1Cc2ccccc2CN2CC[C@@]1(c1ccccc1)C2 | 21.8 | 18.2 | 2.7 |  | > 30 | > 20 | 18 | ID50 [6]: 37 mg/kg
CN1Cc2c(O)cccc2CN2CC[C@@]1(c1ccccc1)C2 | 18.9 | < 30 | 1.9 | 56 |  | > 20 |  | 
COc1ccc2c(c1)CN(C)[C@@]1(c3ccccc3)CCN(C2)C1 | 6.9 | 11 | 0.73 |  | 18 | > 20 |  | ID50 [6]: 14 mg/kg
CCC(=O)N1Cc2ccccc2CN2CC[C@@]1(c1ccccc1)C2 | 8.4 | ≥ 30 | 5 | 87 |  | > 20 |  | 
CCN1Cc2ccccc2CN2CC[C@@]1(c1ccccc1)C2 | 33.3 | < 30 | 1.8 | 100 | > 10 | 4 | 43 | 
CCCN1Cc2ccccc2CN2CCC1(c1ccccc1)C2 (racemic) |  | < 3 |  |  |  | 0.7 |  | Activity [22]: 100%
COc1cccc2c1CN(C)[C@@]1(c3ccccc3)CCN(C2)C1 | 6.2 | > 30 | 13.4 | 9.2 |  | > 20 |  | 
CC(=O)N1Cc2ccccc2CN2CC[C@@]1(c1ccccc1)C2 | 6.3 | 31 | 7.8 |  | > 30 | > 20 | 4.9 | 
